According to patent US4725580A (Sanofi, priority 1985, dated 1988):
Starred links: 1 amine or outer side, 2 acyl side, 3 side chain; linkers in the order of their positions; H or OH if unused. Non-standard residues stand in square brackets, D forms with d. Residues, ends and D or L forms follow the SMILES beside them. *: point of attachment. Propanoyl(3-(3-pyridyl)) = O=C(CCc1cccnc1)*; Propanoyl(3-(4-pyridyl)) = O=C(CCc1ccncc1)*; Acetyl(pyridin-2-yl) = O=C(Cc1ccccn1)*; Sta = CC(C)C[C@H](N)[C@@H](O)CC(=O)O; Acetyl(3-pyridyl) = O=C(Cc1cccnc1)*; Acetyl(4-pyridyl) = O=C(Cc1ccncc1)*; X3 = O=C(CC1CCCN([*:1])C1)[*:2]; Nicotinoyl = O=C(c1cccnc1)*; X2 = O=C(CCC(=O)*)c1ccccn1; X6 = O=C(CCC(=O)*)c1cccnc1; X5 = O=C(CCC(O)c1ccccn1)*; X7 = O=C(CCC(O)c1cccnc1)*; Nle = CCCC[C@H](N)C(=O)O; X1 = O=C(CCCc1ccccn1)*; X8 = O=C(CCCc1cccnc1)*; Boc = CC(C)(C)OC(=O)*

Biological target: T1, human plasma renin (Homo sapiens, UniProt P00797)
T1 construct: from tissue; host or cells: human plasma pool
T1 sequence (P00797 67-406): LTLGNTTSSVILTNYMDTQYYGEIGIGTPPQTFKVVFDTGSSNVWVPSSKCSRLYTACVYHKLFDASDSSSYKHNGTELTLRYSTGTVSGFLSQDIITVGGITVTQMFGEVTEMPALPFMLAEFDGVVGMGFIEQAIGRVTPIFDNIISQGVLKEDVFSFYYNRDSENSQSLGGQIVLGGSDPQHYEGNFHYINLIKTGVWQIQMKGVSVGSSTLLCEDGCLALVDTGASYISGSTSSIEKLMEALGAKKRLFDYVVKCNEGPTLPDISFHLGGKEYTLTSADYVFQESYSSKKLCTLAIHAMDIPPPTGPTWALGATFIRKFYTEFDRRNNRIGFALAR
Assay: Inhibition of human plasma renin activity (PRA) in vitro, angiotensin I released measured by radioimmunoassay
Type: biochemical
Details: human plasma pool rich in renin, 60 minutes at 37° C., phosphate buffer pH 7.4; 5 to 10 doses; read-out: Inhibition of human PRA -log IC50 M pH 7.4 (converted)
Procedure: The products according to the invention were studied for their therapeutic properties and especially their inhibitory action on enzymes. More particularly, the compounds were evaluated "in vitro" in terms of their inhibition of human plasma renin activity (PRA).
Human plasma contains the substrate angiotensinogen and the enzyme renin. […] An inhibitor of the conversion enzyme, phenylmethylsulfonyl fluoride (PMSF), is added to the incubation medium.
420 microliters of human plasma
11 to 50 microliters of the product to be studied, at variable concentrations
A solution of acetic acid in methaol (19/1 by volume) and a solution of sodium hydroxide in methanol (2/1 by volume) are prepared. In a mixture of equal volumes of these 2 solutions, a 0.001M stock solution of the peptide is prepared. The subsequent dilutions of the peptide are then made up in the phosphate buffer.
The results are expressed by their logarithmic value (-log IC50).

| SMILES | IC50 |
| --- | --- |
| CCCC[C@H](NC(=O)[C@H](Cc1ccccc1)NC(=O)CC1CCCN(C(=O)OC(C)(C)C)C1)C(=O)N[C@@H](CC(C)C)[C@@H](O)CC(=O)N[C@@H](CC(C)C)C(=O)N[C@@H](Cc1ccccc1)C(=O)OC (stereo partly shown) [SR 43519, N--(N--Boc--piperidin-3-ylacetyl)-Phe--Nle--Sta--Leu--Phe--OMe] (Boc-[X3]F[Nle][Sta]LF-OMe) | 174 nM |
| CCCC[C@H](NC(=O)[C@H](Cc1ccccc1)NC(=O)CCCc1cccnc1)C(=O)N[C@@H](CC(C)C)[C@@H](O)CC(=O)N[C@@H](CC(C)C)C(=O)N[C@@H](Cc1ccccc1)C(=O)OC [SR 43782, N--(4-(pyridin-3-yl)butyryl)-Phe--Nle--Sta--Leu--Phe--OMe] (X8-F[Nle][Sta]LF-OMe) | 41.7 nM |
| CCCC[C@H](NC(=O)[C@H](Cc1ccccc1)NC(=O)Cc1cccnc1)C(=O)N[C@@H](CC(C)C)[C@@H](O)CC(=O)N[C@@H](CC(C)C)C(=O)N[C@@H](Cc1ccccc1)C(=O)OC [SR 43282, N--(pyridin-3-ylacetyl)-Phe--Nle--Sta--Leu--Phe--OMe] ({Acetyl(3-pyridyl)}-F[Nle][Sta]LF-OMe) | 79.4 nM |
| CCCC[C@H](NC(=O)[C@H](Cc1ccccc1)NC(=O)Cc1ccncc1)C(=O)N[C@@H](CC(C)C)[C@@H](O)CC(=O)N[C@@H](CC(C)C)C(=O)N[C@@H](Cc1ccccc1)C(=O)OC [SR 43781, N--(pyridin-4-ylacetyl)-Phe--Nle--Sta--Leu--Phe--OMe] ({Acetyl(4-pyridyl)}-F[Nle][Sta]LF-OMe) | 132 nM |
| CCCC[C@H](NC(=O)[C@H](Cc1ccccc1)NC(=O)c1cccnc1)C(=O)N[C@@H](CC(C)C)[C@@H](O)CC(=O)N[C@@H](C)C(=O)N[C@@H](CC(C)C)C(=O)OC [SR 42873, N-(Nicotinoyl)-Phe-Nle-Sta-Ala-Leu-OMe] (Nicotinoyl-F[Nle][Sta]AL-OMe) | 81.3 nM |
| CCCC[C@H](NC(=O)[C@H](Cc1ccccc1)NC(=O)CCC(O)c1cccnc1)C(=O)N[C@@H](CC(C)C)[C@@H](O)CC(=O)N[C@@H](CC(C)C)C(=O)N[C@@H](Cc1ccccc1)C(=O)OC (stereo partly drawn) [SR 43123, (R,S)--N--(4-(pyridin-3-yl)-4-hydroxybutyryl)-Phe--Nle--Sta--Leu--Phe--OMe] (X7-F[Nle][Sta]LF-OMe) | 81.3 nM |

Next, values leading:

| IC50 | SMILES |
| --- | --- |
| 891 nM | CCCC[C@H](NC(=O)[C@H](Cc1ccccc1)NC(=O)CCC(=O)c1ccccn1)C(=O)N[C@@H](CC(C)C)[C@@H](O)CC(=O)N[C@@H](CC(C)C)C(=O)N[C@@H](Cc1ccccc1)C(=O)OC [SR 42793] (X2-F[Nle][Sta]LF-OMe) |
| 295 nM | CCCC[C@H](NC(=O)[C@H](Cc1ccccc1)NC(=O)Cc1ccccn1)C(=O)N[C@@H](CC(C)C)[C@@H](O)CC(=O)N[C@@H](CC(C)C)C(=O)N[C@@H](Cc1ccccc1)C(=O)OC [SR 43314, N--(pyridin-2-ylacetyl)-Phe--Nle--Sta--Leu--Phe--OMe] ({Acetyl(pyridin-2-yl)}-F[Nle][Sta]LF-OMe) |
| 447 nM | CCCC[C@H](NC(=O)[C@H](Cc1ccccc1)NC(=O)CCC(=O)c1cccnc1)C(=O)N[C@@H](CC(C)C)[C@@H](O)CC(=O)N[C@@H](CC(C)C)C(=O)N[C@@H](Cc1ccccc1)C(=O)OC [SR 43108, N--(4-(pyridin-3-yl)-4-oxobutyryl)-Phe--Nle--Sta--Leu--Phe--OMe] (X6-F[Nle][Sta]LF-OMe) |
| 100 nM | CCCC[C@H](NC(=O)[C@H](Cc1ccccc1)NC(=O)CCCc1ccccn1)C(=O)N[C@@H](CC(C)C)[C@@H](O)CC(=O)N[C@@H](CC(C)C)C(=O)N[C@@H](Cc1ccccc1)C(=O)OC [SR 43484, N--(4-(pyridin-2-yl)butyryl)-Phe--Nle--Sta--Leu--Phe--OMe] (X1-F[Nle][Sta]LF-OMe) |
| 58.9 nM | CCCC[C@H](NC(=O)[C@H](Cc1ccccc1)NC(=O)CCC(O)c1ccccn1)C(=O)N[C@@H](CC(C)C)[C@@H](O)CC(=O)N[C@@H](CC(C)C)C(=O)N[C@@H](Cc1ccccc1)C(=O)OC (stereo partly shown) [SR 42991] (X5-F[Nle][Sta]LF-OMe) |
| 204 nM | CCCC[C@H](NC(=O)[C@H](Cc1ccccc1)NC(=O)CCc1ccncc1)C(=O)N[C@@H](CC(C)C)[C@@H](O)CC(=O)N[C@@H](CC(C)C)C(=O)N[C@@H](Cc1ccccc1)C(=O)OC [SR 43633, N--(3-(pyridin-4-yl)propionyl)-Phe--Nle--Sta--Leu--Phe--OMe] ({Propanoyl(3-(4-pyridyl))}-F[Nle][Sta]LF-OMe) |
| 67.6 nM | CCCC[C@H](NC(=O)[C@H](Cc1ccccc1)NC(=O)CCc1cccnc1)C(=O)N[C@@H](CC(C)C)[C@@H](O)CC(=O)N[C@@H](CC(C)C)C(=O)N[C@@H](Cc1ccccc1)C(=O)OC [SR 43454, N--(3-(pyridin-3-yl)propionyl)-Phe--Nle--Sta--Leu--Phe--OMe] ({Propanoyl(3-(3-pyridyl))}-F[Nle][Sta]LF-OMe) |
